Measurements: ChEMBL document CHEMBL4261636, “Design of Y2 Receptor Selective and Proteolytically Stable PYY3-36 Analogues” (J Med Chem, 2018)
Bridge positions count the residues as written; N and C are the ends. Square brackets hold non-standard residues; d marks the D form. Peptide text beside a SMILES is read from it. Ahx = NCCCCCC(=O)O

How the values were obtained:
Homo sapiens [1] = species on record: Homo sapiens; test: Selectivity ratio of Ki for human Y1R expressed in BHK-21 cell membranes to Ki for human Y2R expressed in CHO cell membranes; assay type: cell-based
Homo sapiens [2] = species on record: Homo sapiens; test: Selectivity ratio of Ki for human Y4R expressed in CHO-K1 cell membranes to Ki for human Y2R expressed in CHO cell membranes; assay type: cell-based
Homo sapiens [3] = species on record: Homo sapiens; test: Selectivity ratio of Ki for human Y5R expressed in HEK293 cell membranes to Ki for human Y2R expressed in CHO cell membranes; assay type: cell-based
[4] = target: T1, Neuropeptide Y receptor type 1 (Homo sapiens, UniProt P25929); test: Displacement of [125I]-PYY(1 to 36 residues) from human Y1R expressed in BHK-21 cell membranes after 2 hrs by scintillation proximity assay
T1 sequence (P25929 whole entry): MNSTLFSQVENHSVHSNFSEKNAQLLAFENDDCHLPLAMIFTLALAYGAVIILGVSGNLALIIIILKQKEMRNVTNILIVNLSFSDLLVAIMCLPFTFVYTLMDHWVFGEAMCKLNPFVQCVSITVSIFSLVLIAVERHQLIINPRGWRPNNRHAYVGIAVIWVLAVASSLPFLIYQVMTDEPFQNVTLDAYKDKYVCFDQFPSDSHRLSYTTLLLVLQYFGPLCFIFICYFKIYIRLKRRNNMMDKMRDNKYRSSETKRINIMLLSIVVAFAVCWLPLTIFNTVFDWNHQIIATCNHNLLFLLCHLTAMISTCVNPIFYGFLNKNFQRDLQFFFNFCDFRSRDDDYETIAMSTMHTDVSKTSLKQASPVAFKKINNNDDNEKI

[5] = target: T2, Neuropeptide Y receptor type 2 (Homo sapiens, UniProt P49146); test: Displacement of [125I]-PYY(1 to 36 residues) from human Y2R expressed in CHO cell membranes after 2 hrs by scintillation proximity assay
T2 sequence (P49146 whole entry): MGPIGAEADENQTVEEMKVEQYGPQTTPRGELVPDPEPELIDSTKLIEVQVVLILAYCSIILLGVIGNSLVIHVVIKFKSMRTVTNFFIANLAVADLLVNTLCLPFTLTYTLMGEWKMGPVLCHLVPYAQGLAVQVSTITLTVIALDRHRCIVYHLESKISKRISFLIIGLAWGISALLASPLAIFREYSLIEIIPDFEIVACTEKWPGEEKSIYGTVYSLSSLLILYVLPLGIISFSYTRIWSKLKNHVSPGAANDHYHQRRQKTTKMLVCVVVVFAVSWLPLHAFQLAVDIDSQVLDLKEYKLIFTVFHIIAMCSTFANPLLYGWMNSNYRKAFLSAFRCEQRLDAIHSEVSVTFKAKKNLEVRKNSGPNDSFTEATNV

[6] = target: T3, Neuropeptide Y receptor type 4 (Homo sapiens, UniProt P50391); test: Displacement of [125I]-PP from human Y4R expressed in CHO-K1 cell membranes after 2 hrs by scintillation proximity assay
T3 sequence (P50391 whole entry, the tested form may be a part): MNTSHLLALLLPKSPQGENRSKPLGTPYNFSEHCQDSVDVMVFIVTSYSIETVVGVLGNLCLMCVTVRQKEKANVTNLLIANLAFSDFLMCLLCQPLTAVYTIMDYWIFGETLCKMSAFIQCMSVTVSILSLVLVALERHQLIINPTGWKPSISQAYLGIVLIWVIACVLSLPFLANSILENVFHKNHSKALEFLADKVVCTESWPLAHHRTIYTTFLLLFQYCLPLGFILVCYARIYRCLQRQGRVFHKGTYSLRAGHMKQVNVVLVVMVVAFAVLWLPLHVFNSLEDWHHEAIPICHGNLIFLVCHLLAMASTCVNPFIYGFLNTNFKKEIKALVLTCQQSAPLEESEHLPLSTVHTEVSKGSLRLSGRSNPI

[7] = target: T4, Neuropeptide Y receptor type 5 (Homo sapiens, UniProt Q15761); test: Displacement of [125I]-PYY(1 to 36 residues) from human Y5R expressed in HEK293 cell membranes after 2 hrs by scintillation proximity assay
T4 sequence (Q15761 whole entry): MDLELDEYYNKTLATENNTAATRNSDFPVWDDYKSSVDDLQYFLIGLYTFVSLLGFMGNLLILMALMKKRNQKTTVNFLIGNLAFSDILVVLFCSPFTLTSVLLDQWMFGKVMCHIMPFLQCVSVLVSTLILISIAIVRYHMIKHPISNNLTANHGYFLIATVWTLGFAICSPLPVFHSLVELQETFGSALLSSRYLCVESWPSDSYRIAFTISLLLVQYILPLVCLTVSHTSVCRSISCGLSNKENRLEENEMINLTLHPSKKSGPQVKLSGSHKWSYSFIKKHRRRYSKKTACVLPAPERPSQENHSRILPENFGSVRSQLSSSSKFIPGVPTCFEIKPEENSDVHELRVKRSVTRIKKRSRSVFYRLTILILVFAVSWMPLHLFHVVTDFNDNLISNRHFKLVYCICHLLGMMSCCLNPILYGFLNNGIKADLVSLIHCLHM

[8] = target: T1, Neuropeptide Y receptor type 1; test: Activation of human Y1R expressed in HEK293 cells assessed as inhibition of isoproterenol-induced increase in intracellular cAMP levels by calcium 5 dye-based FLIPR assay; assay type: functional, cell-based; settings: for pEC50: hek293; for EC50: read-out: EC50
[9] = target: T2, Neuropeptide Y receptor type 2; test: Activation of human Y2R expressed in HEK293 cells assessed as inhibition of isoproterenol-induced increase in intracellular cAMP levels by calcium 5 dye-based FLIPR assay; assay type: functional, cell-based; settings: read-out: EC50
[10] = target: T3, Neuropeptide Y receptor type 4; test: Activation of human Y4R expressed in HEK293 cells assessed as inhibition of isoproterenol-induced increase in intracellular cAMP levels by calcium 5 dye-based FLIPR assay; assay type: functional, cell-based; settings: for pEC50: hek293
[11] = target: T4, Neuropeptide Y receptor type 5; test: Activation of human Y5R expressed in HEK293 cells assessed as inhibition of isoproterenol-induced increase in intracellular cAMP levels by calcium 5 dye-based FLIPR assay; assay type: functional, cell-based

Compound `CC[C@H](C)[C@H](NC(=O)[C@H](Cc1ccc(O)cc1)NC(=O)[C@H](Cc1c[nH]cn1)NC(=O)[C@H](CCCN=C(N)N)NC(=O)CCCCCNC(=O)[C@H](CCCCN)NC(=O)[C@H](CO)NC(=O)[C@@H]1CCCN1C(=O)[C@@H](N)Cc1ccc(O)cc1)C(=O)N[C@@H](CC(N)=O)C(=O)N[C@@H](CC(C)C)C(=O)N[C@H](C(=O)N[C@H](C(=O)N[C@@H](CCCN=C(N)N)C(=O)N[C@@H](CCC(N)=O)C(=O)N[C@@H](CCCN=C(N)N)C(=O)N[C@@H](Cc1ccc(O)cc1)C(=O)O)[C@@H](C)O)[C@@H](C)CC` (H-YPSK[Ahx]RHYINLITRQRY-OH) has a Ratio Ki (Homo sapiens [1]) of 31, a Ratio Ki (Homo sapiens [2]) of 15 and a Ratio Ki (Homo sapiens [3]) of 100.
With `CC[C@H](C)[C@@H]1NC(=O)[C@@H](NC(=O)[C@@H](N)Cc2ccc(O)cc2)CCC(=O)NCCCC[C@@H](C(=O)N[C@H](C(=O)N[C@H](C(=O)N[C@@H](CCCNC(=N)N)C(=O)N[C@@H](CCC(N)=O)C(=O)N[C@@H](CCCNC(=N)N)C(=O)N[C@@H](Cc2ccc(O)cc2)C(=O)O)[C@@H](C)O)C(C)C)NC(=O)[C@H](CC(N)=O)NC(=O)[C@H](CC(C)C)NC(=O)[C@H](Cc2ccc(O)cc2)NC(=O)[C@H](Cc2cnc[nH]2)NC(=O)[C@H](CCCNC(=N)N)NC(=O)CCCCCNC(=O)[C@H](CCCCN)NC1=O` the Ki [4] was 1300 nM, the Ki [5] was 1.3 nM and the Ki [6] was 50 nM. It also gave a Ki [7] of 790 nM, a pEC50 [8] of under 6 and an EC50 [8] of over 1000 nM. For the same compound, the EC50 [9] was 2 nM, the EC50 [10] was over 1000 nM and the pEC50 [10] was under 6. It also gave an EC50 [11] of 400 nM, a Ratio Ki (Homo sapiens [1]) of 1000 and a Ratio Ki (Homo sapiens [2]) of 39. It also gave a Ratio Ki (Homo sapiens [3]) of 610.
With `CC[C@H](C)[C@@H]1NC(=O)[C@H](CC(C)C)NC(=O)[C@H](CC(N)=O)NC(=O)[C@@H](NC(=O)[C@H](Cc2ccc(O)cc2)NC(=O)[C@H](Cc2cnc[nH]2)NC(=O)[C@H](CCCNC(=N)N)NC(C)=O)CCC(=O)NCCCC[C@@H](C(=O)N[C@@H](CCCNC(=N)N)C(=O)N[C@@H](CCC(N)=O)C(=O)N[C@@H](CCCNC(=N)N)C(=O)N[C@@H](Cc2ccc(O)cc2)C(=O)O)NC1=O` (Ac-RHYENLIKRQRY-OH; lactam 4-8) the Ki [4] was over 10000 nM, the pKi ([4]; bhk-21) was under 5 and the Ki [5] was 79 nM. The Ki [6] was 1600 nM, the Ki [7] was 5000 nM and the Ratio Ki (Homo sapiens [1]) was over 130. For the same compound, the Ratio Ki (Homo sapiens [2]) was 20 and the Ratio Ki (Homo sapiens [3]) was 63.
`CC[C@H](C)[C@H](NC(=O)[C@H](Cc1ccc(O)cc1)NC(=O)[C@H](Cc1cnc[nH]1)NC(=O)[C@H](CCCNC(=N)N)NC(=O)CCCCCNC(=O)[C@H](CCCCN)NC(=O)[C@H](CO)NC(=O)[C@@H]1CCCN1C(=O)[C@@H](N)Cc1ccc(O)cc1)C(=O)N[C@@H](CC(N)=O)C(=O)N[C@@H](CC(C)C)C(=O)N[C@H](C(=O)N[C@H](C(=O)N[C@@H](CCCNC(=N)N)C(=O)N[C@@H](CCC(N)=O)C(=O)N[C@@H](CCCNC(=N)N)C(=O)N[C@@H](Cc1ccc(O)cc1)C(=O)O)[C@@H](C)O)[C@@H](C)CC` (H-YPSK[Ahx]RHYINLITRQRY-OH) was tested, and the Ki [4] was 400 nM, the Ki [5] was 13 nM and the Ki [6] was 200 nM. It also gave a Ki [7] of 1300 nM.
Work on `CC[C@H](C)[C@@H]1NC(=O)[C@H](Cc2ccc(O)cc2)NC(=O)[C@H](Cc2cnc[nH]2)NC(=O)[C@H](CCCNC(=N)N)NC(=O)CCCCCNC(=O)[C@H](CCCCN)NC(=O)[C@H](CO)NC(=O)[C@@H](NC(=O)[C@@H](N)Cc2ccc(O)cc2)CCC(=O)NCCCC[C@@H](C(=O)N[C@H](C(=O)N[C@H](C(=O)N[C@@H](CCCNC(=N)N)C(=O)N[C@@H](CCC(N)=O)C(=O)N[C@@H](CCCNC(=N)N)C(=O)N[C@@H](Cc2ccc(O)cc2)C(=O)O)[C@@H](C)O)[C@@H](C)CC)NC(=O)[C@H](CC(N)=O)NC1=O` (H-YESK[Ahx]RHYINKITRQRY-OH; lactam 2-11) yielded a Ki [4] of 500 nM, a Ki [5] of 2 nM and a Ki [6] of 25 nM. For the same compound, the Ki [7] was 630 nM, the pEC50 [8] was under 6 and the EC50 [8] was over 1000 nM. The EC50 [9] was 7.6 nM, the EC50 [10] was over 1000 nM and the pEC50 [10] was under 6. The EC50 [11] was 500 nM, the Ratio Ki (Homo sapiens [1]) was 250 and the Ratio Ki (Homo sapiens [2]) was 13. The Ratio Ki (Homo sapiens [3]) was 320.
`CC[C@H](C)[C@H](NC(=O)[C@H](Cc1ccc(O)cc1)NC(=O)[C@H](CCCNC(=N)N)NC(=O)[C@H](CCCNC(=N)N)NC(=O)[C@H](CC(C)C)NC(=O)[C@H](CC(=O)O)NC(=O)[C@H](C)NC(=O)[C@H](C)NC(=O)[C@H](Cc1ccc(O)cc1)NC(=O)[C@H](CCC(N)=O)NC(=O)[C@H](C)NC(=O)[C@H](CCSC)NC(=O)[C@H](CCC(N)=O)NC(=O)[C@H](CCC(=O)O)NC(=O)[C@@H]1CCCN1C(=O)[C@@H](NC(=O)[C@H](C)NC(=O)[C@H](CC(N)=O)NC(=O)[C@H](CC(=O)O)NC(=O)CNC(=O)[C@@H]1CCCN1C(=O)[C@H](Cc1ccc(O)cc1)NC(=O)[C@@H](NC(=O)[C@@H]1CCCN1C(=O)[C@H](CCC(=O)O)NC(=O)[C@H](CC(C)C)NC(=O)[C@@H]1CCCN1C(=O)[C@H](C)N)C(C)C)[C@@H](C)O)C(=O)N[C@@H](CC(N)=O)C(=O)N[C@@H](CCSC)C(=O)N[C@@H](CC(C)C)C(=O)N[C@H](C(=O)N[C@@H](CCCNC(=N)N)C(=O)N[C@@H](CCC(N)=O)C(=O)N[C@@H](CCCNC(=N)N)C(=O)N[C@@H](Cc1ccc(O)cc1)C(=O)O)[C@@H](C)O` showed a Ki [4] of 40 nM, a Ki [5] of 6.3 nM and a Ki [6] of 0.1 nM. For the same compound, the Ki [7] was 1.3 nM, the EC50 [8] was 16 nM and the EC50 [9] was 16 nM. The EC50 [10] was 0.2 nM, the EC50 [11] was 6.3 nM and the Ratio Ki (Homo sapiens [1]) was 6.3. For the same compound, the Ratio Ki (Homo sapiens [2]) was 0.02 and the Ratio Ki (Homo sapiens [3]) was 0.21.
